In PubChem BioAssay AID330 (DTP/NCI, 2004):
“And” between values parts separate entries of the source, which are not always exact repeats. Equal entries are not always repeated. Inconclusive results and toxic doses are left out. How the source made its calls: active means survival T/C of 150% or more; inactive means T/C below 125% in these data.

Test system: P388 leukemia ip, CD2F1 mice, survival T/C
Assay: NCI In Vivo Anticancer Drug Screen. Data for tumor model P388 Leukemia (intraperitoneal) in CD2F1 (CDF1) mice
Settings: endpoint: median survival time, higher = longer survival
Procedure, shortened: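 Mice carrying the transplanted tumor received test compound or vehicle. Survival was recorded in each group, and the value is the treated-group measurement divided by that of the vehicle-treated control group.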

[1] = dose: 100.0 mg/kg/injection, schedule: Q04DX003 (ip), vehicle: saline
[2] = dose: 50.0 mg/kg/injection, schedule: Q01DX009 (ip), vehicle: saline
[3] = dose: 50.0 mg/kg/injection, schedule: Q01DX005 (ip), vehicle: saline
[4] = dose: 50.0 mg/kg/injection, schedule: Q01DX005 (ip), vehicle: saline with Tween-80
[5] = dose: 60.0 mg/kg/injection, schedule: Q01DX005 (ip), vehicle: saline with Tween-80
[6] = dose: 100.0 mg/kg/injection, schedule: Q01DX005 (ip), vehicle: saline with Tween-80
[7] = dose: 120.0 mg/kg/injection, schedule: Q01DX005 (ip), vehicle: saline with Tween-80
[8] = dose: 200.0 mg/kg/injection, schedule: Q01DX005 (ip), vehicle: saline with Tween-80
[9] = dose: 50.0 mg/kg/injection, schedule: Q01DX005 (ip), vehicle: Klucel (hydroxypropylcellulose) (HPC)
[10] = dose: 100.0 mg/kg/injection, schedule: Q01DX005 (ip), vehicle: Klucel (hydroxypropylcellulose) (HPC)
[11] = dose: 200.0 mg/kg/injection, schedule: Q01DX005 (ip), vehicle: Klucel (hydroxypropylcellulose) (HPC)
[12] = dose: 100.0 mg/kg/injection, schedule: Q01DX001 (ip), vehicle: Klucel (hydroxypropylcellulose) (HPC)
[13] = dose: 50.0 mg/kg/injection, schedule: Q01DX009 (ip), vehicle: Klucel (hydroxypropylcellulose) (HPC)

Measured: T/C

COc1cccc(C(=O)NC[n+]2ccccc2)c1
inactive: dose: 25.0 mg/kg/injection, schedule: Q04DX003 (ip), vehicle: saline 100 % of control | dose: 50.0 mg/kg/injection, schedule: Q04DX003 (ip), vehicle: saline 100 % of control | [1] 109 % of control

Cc1c(-c2ccccc2)[nH]c2cc3c(cc12)Oc1ccccc1O3
inactive: dose: 17.5 mg/kg/injection, schedule: Q01DX009 (ip), vehicle: Klucel (hydroxypropylcellulose) (HPC) 101 % of control | dose: 35.0 mg/kg/injection, schedule: Q01DX009 (ip), vehicle: Klucel (hydroxypropylcellulose) (HPC) 106 % of control | dose: 70.0 mg/kg/injection, schedule: Q01DX009 (ip), vehicle: Klucel (hydroxypropylcellulose) (HPC) 105 % of control

CCOC(=O)/[C](=N\N=P(N(C)C)(N(C)C)N(C)C)[Hg]/[C](=N/N=P(N(C)C)(N(C)C)N(C)C)C(=O)OCC
inactive: dose: 6.25 mg/kg/injection, schedule: Q01DX009 (ip), vehicle: saline 101 % of control and 94 % of control | dose: 12.5 mg/kg/injection, schedule: Q01DX009 (ip), vehicle: saline 99 % of control and 94 % of control | dose: 25.0 mg/kg/injection, schedule: Q01DX009 (ip), vehicle: saline 103 % of control and 108 % of control | [2] 106 % of control and 110 % of control

COc1cc(NCC(C)(O)CN(CC(C)C)C(C)C)c2ncccc2c1 (stereo not given)
inactive: dose: 12.5 mg/kg/injection, schedule: Q01DX005 (ip), vehicle: saline 97 % of control | dose: 25.0 mg/kg/injection, schedule: Q01DX005 (ip), vehicle: saline 103 % of control | [3] 106 % of control and 109 % of control

CC1(C)OC(C(F)(F)F)(C(F)(F)F)c2cc(C(C)(C)C)cc(C(O)(C(F)(F)F)C(F)(F)F)c2S1
inactive: dose: 30.0 mg/kg/injection, schedule: Q01DX005 (ip), vehicle: saline with Tween-80 120 % of control | [4] 106 % of control | [5] 113 % of control | [6] 120 % of control | [7] 112 % of control | [8] 115 % of control

O=c1nc(-c2ccccc2)cc(CCc2ccccc2)[nH]1
inactive: [4] 90 % of control | [6] 89 % of control | [8] 102 % of control

CC1(C)CC(Nc2ccccc2)=CC(=S)N1
inactive: [9] 100 % of control | [10] 103 % of control | [11] 100 % of control

CS(=O)(=O)OCC1OCC(OS(C)(=O)=O)C1O (stereo not given)
inactive: dose: 50.0 mg/kg/injection, schedule: Q01DX001 (ip), vehicle: Klucel (hydroxypropylcellulose) (HPC) 101 % of control | [12] 102 % of control | dose: 200.0 mg/kg/injection, schedule: Q01DX001 (ip), vehicle: Klucel (hydroxypropylcellulose) (HPC) 101 % of control

CCCCNCCC1(CCC(C)C)C(=O)NC(=O)NC1=O
inactive: [9] 96 % of control | [10] 105 % of control | [11] 101 % of control

C/C=C1/CN2C3C[C@@]45c6cc(OC)c(OC)cc6NC4(O3)C2CC1C5C(=O)OC (stereo not given in full)
inactive: dose: 5.25 mg/kg/injection, schedule: Q01DX005 (ip), vehicle: Klucel (hydroxypropylcellulose) (HPC) 102 % of control | dose: 10.5 mg/kg/injection, schedule: Q01DX005 (ip), vehicle: Klucel (hydroxypropylcellulose) (HPC) 102 % of control | dose: 21.0 mg/kg/injection, schedule: Q01DX005 (ip), vehicle: Klucel (hydroxypropylcellulose) (HPC) 98 % of control | dose: 42.0 mg/kg/injection, schedule: Q01DX005 (ip), vehicle: Klucel (hydroxypropylcellulose) (HPC) 99 % of control

Cn1cnc2cc3c(cc2c1=O)nc1n3CCOC1
inactive: dose: 100.0 mg/kg/injection, schedule: Q04DX003 (ip), vehicle: Klucel (hydroxypropylcellulose) (HPC) 103 % of control | dose: 200.0 mg/kg/injection, schedule: Q04DX003 (ip), vehicle: Klucel (hydroxypropylcellulose) (HPC) 100 % of control | dose: 400.0 mg/kg/injection, schedule: Q04DX003 (ip), vehicle: Klucel (hydroxypropylcellulose) (HPC) 93 % of control

CC(C#N)(S(C)(=O)=O)S(=O)(=O)c1ccccc1 (stereo not given)
inactive: dose: 1.56 mg/kg/injection, schedule: Q01DX001 (ip), vehicle: saline with Tween-80 96 % of control | dose: 3.12 mg/kg/injection, schedule: Q01DX001 (ip), vehicle: saline with Tween-80 99 % of control | dose: 6.25 mg/kg/injection, schedule: Q01DX001 (ip), vehicle: saline with Tween-80 102 % of control

CN=C(N)N/N=C(C)/C(C)=C/c1ccccc1
inactive: dose: 25.0 mg/kg/injection, schedule: Q04DX002 (ip), vehicle: saline with Tween-80 104 % of control

COc1cc2cc3cc(-c4ccc(Cl)cc4)c(N4CCN(C)CC4)nc3nc2cc1OC
inactive: [5] 94 % of control | [7] 101 % of control | dose: 240.0 mg/kg/injection, schedule: Q01DX005 (ip), vehicle: saline with Tween-80 111 % of control

CC(=O)Nc1ccc(S(=O)(=O)OC(C)C)cc1
inactive: [1] 105 % of control | dose: 200.0 mg/kg/injection, schedule: Q04DX003 (ip), vehicle: saline 113 % of control | dose: 400.0 mg/kg/injection, schedule: Q04DX003 (ip), vehicle: saline 118 % of control

C/C(=N\N/C=N/S(=O)(=O)c1ccccc1)c1ccccc1
inactive: [9] 88 % of control | [10] 89 % of control | [11] 89 % of control

C=C1CC2(CC3(C(C)C)CC3C2C)OC1=O (stereo not given)
inactive: dose: 100.0 mg/kg/injection, schedule: Q01DX001 (ip), vehicle: saline 100 % of control | dose: 200.0 mg/kg/injection, schedule: Q01DX001 (ip), vehicle: saline 99 % of control | dose: 400.0 mg/kg/injection, schedule: Q01DX001 (ip), vehicle: saline 110 % of control

Cc1nc2sccn2c1C=O
inactive: dose: 12.5 mg/kg/injection, schedule: Q01DX009 (ip), vehicle: Klucel (hydroxypropylcellulose) (HPC) 109 % of control | dose: 25.0 mg/kg/injection, schedule: Q01DX009 (ip), vehicle: Klucel (hydroxypropylcellulose) (HPC) 114 % of control | [13] 114 % of control | [12] 97 % of control

O=C1c2c(Cl)c(Cl)c(Cl)c(Cl)c2C(=O)C2(Cl)CC=CCC12Cl (stereo not given)
inactive: dose: 6.25 mg/kg/injection, schedule: Q01DX005 (ip), vehicle: Klucel (hydroxypropylcellulose) (HPC) 101 % of control | dose: 12.5 mg/kg/injection, schedule: Q01DX005 (ip), vehicle: Klucel (hydroxypropylcellulose) (HPC) 95 % of control | dose: 25.0 mg/kg/injection, schedule: Q01DX005 (ip), vehicle: Klucel (hydroxypropylcellulose) (HPC) 101 % of control

CCOC(=O)c1cc(Cl)cc2c(=O)c3c([nH]c12)C(=O)c1c([nH]c2c(C(=O)OCC)cc(Cl)cc2c1=O)C3=O
inactive: [13] 99 % of control | dose: 100.0 mg/kg/injection, schedule: Q01DX009 (ip), vehicle: Klucel (hydroxypropylcellulose) (HPC) 105 % of control | dose: 200.0 mg/kg/injection, schedule: Q01DX009 (ip), vehicle: Klucel (hydroxypropylcellulose) (HPC) 98 % of control

O=C(N/N=C/c1ccc(O)cc1O)c1cccnc1
inactive: dose: 12.5 mg/kg/injection, schedule: Q01DX009 (ip), vehicle: olive oil, sesame oil, peanut oil 106 % of control | dose: 25.0 mg/kg/injection, schedule: Q01DX009 (ip), vehicle: olive oil, sesame oil, peanut oil 105 % of control | dose: 50.0 mg/kg/injection, schedule: Q01DX009 (ip), vehicle: olive oil, sesame oil, peanut oil 121 % of control | dose: 50.0 mg/kg/injection, schedule: Q01DX009 (oral), vehicle: saline with Tween-80 108 % of control | dose: 100.0 mg/kg/injection, schedule: Q01DX009 (ip), vehicle: olive oil, sesame oil, peanut oil 102 % of control | dose: 100.0 mg/kg/injection, schedule: Q01DX009 (oral), vehicle: saline with Tween-80 108 % of control | dose: 200.0 mg/kg/injection, schedule: Q01DX009 (oral), vehicle: saline with Tween-80 101 % of control | dose: 400.0 mg/kg/injection, schedule: Q01DX009 (oral), vehicle: saline with Tween-80 105 % of control

N#Cc1ccc(OC(=O)Nc2c(Cl)cc(Cl)cc2Cl)cc1
inactive: [5] 100 % of control | [7] 92 % of control

CC(NCCCCNC(C)C(=O)O)C(=O)O (stereo not given)
inactive: [3] 94 % of control | dose: 100.0 mg/kg/injection, schedule: Q01DX005 (ip), vehicle: saline 103 % of control | dose: 200.0 mg/kg/injection, schedule: Q01DX005 (ip), vehicle: saline 102 % of control

CC(C)(C)C(=O)CP(=O)(O)O
inactive: [2] 95 % of control and 100 % of control | dose: 100.0 mg/kg/injection, schedule: Q01DX009 (ip), vehicle: saline 104 % of control and 97 % of control | dose: 200.0 mg/kg/injection, schedule: Q01DX009 (ip), vehicle: saline 95 % of control and 101 % of control

S=C=NP1(N=C=S)=NP(N=C=S)(N=C=S)=NP(N=C=S)(N=C=S)=N1 (stereo not given)
inactive: [9] 107 % of control | [10] 97 % of control

O=C(O)c1ccccc1-c1ccc2ccccc2c1
inactive: [4] 94 % of control | [6] 105 % of control | [8] 110 % of control
